Measured values as given in patent publication US6596867B2, “Tartrate salt of a substituted dipeptide as growth hormone secretagogue” (Pfizer Inc., priority 1997, dated 2003).
Where a name gives a salt, the structure may show the parent alone.

Tests used:
[1] = solubility of the crystalline salt (stated property); assay type: physicochemical; settings: crystalline form
[2] = stability of the crystalline salt (stated property); assay type: physicochemical; settings: crystalline form

In the case of `CC(C)(N)C(=O)N[C@H](COCc1ccc(F)cc1F)C(=O)N1CCC2=NN(CC(F)(F)F)C(=O)[C@]2(Cc2ccccn2)C1` [2-Amino-N-{1-(2,4-difluoro-benzyloxymethyl)-2-oxo-2-[3-oxo-3a-pyridin-2-ylmethyl-2-(2,2.2-trifluoro-ethyl)-2,3,3a,4,6,7-hexahydro-pyrazolo[4,3-c]pyridin-5-yl]-ethyl}-2-methyl-propionamide L-(+) tartrate], the solubility [1] is reported as “high solubility” and the stability [2] is reported as “good stability”.
